{
  "source": "paper PMC2801564",
  "about": "(Chemistry & biology, 2009)",
  "molecular_target": "T1, cathepsin L (CatL) (Ixodes ricinus, UniProt A4GTA6)",
  "T1 sequence (A4GTA6 119-335)": "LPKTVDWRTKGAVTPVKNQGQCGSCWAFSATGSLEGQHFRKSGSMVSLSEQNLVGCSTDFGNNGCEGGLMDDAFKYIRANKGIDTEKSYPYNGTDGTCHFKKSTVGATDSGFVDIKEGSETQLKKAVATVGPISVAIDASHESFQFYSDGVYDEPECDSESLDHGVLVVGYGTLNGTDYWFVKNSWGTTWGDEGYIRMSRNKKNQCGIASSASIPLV",
  "assay": "fluorimetric inhibition assay in gut extract",
  "type": "biochemical",
  "settings": "DTT; pH optimum; 35 °C; covalent",
  "data": [
    {"compound": "CC(C)C[C@H](NC(=O)[C@H]1O[C@@H]1C(=O)O)C(=O)NCCCCNC(=N)N", "note": "[E-64]", "values": [
      {"measurement": "% inhibition", "value": "insensitive to E-64 (in contrast to cathepsins B, L and C)"}
    ]}
  ]
}
